# Test results: PMC9603521, “WYBQ-4: a New Bactericidal Agent against Methicillin-Resistant Staphylococcus aureus” (Microbiology Spectrum, 2022)
# Columns and labels:
# MSSA ATCC 29213 = experiment: Postantibiotic effect (viable plate count); assay type: cell-based, Staphylococcus aureus; settings: 1 h exposure
# Experimental: The postantibiotic effect (PAE) of WYBQ-4 against MSSA 29213 was determined in MHB agar using the viable plate count method ([39]). […] After incubation at 37°C for 1 h, WYBQ-4 was removed by centrifugation and washing with phosphate-buffered saline (PBS). Subsequently, fresh MHB medium was added to resuspend the bacteria, and the mixture was incubated at 37°C with shaking. The number of colonies was counted by taking 10 μL of bacteria at 1-h intervals and applying them to BHI agar plates after appropriate dilution. PAE duration was calculated as follows: time (h) for bacteria to return to log-phase growth after drug treatment – time (h) for the control group to return to log-phase growth ([40]).
# clinical isolate SA1B2B = experiment: Mouse systemic infection model; assay type: in vivo, mice; settings: different doses
# Experimental: (§1) The S. aureus-induced systemic infection model of mice (6-week-old female C57BL/6J mice) was established as previously described ([46]). […] The mice infected in the same way were treated with physiological saline as an infection control group. The mock group was not infected with S. aureus, and the 7-day mortality of the mice in each group was calculated.
# MRSA USA300 [1] = experiment: Mouse systemic infection model; assay type: in vivo, mice; settings: USA300 5 × 10^7 CFU, 150 mg/kg, tail intravenous injection at 0 and 3 h, 7-day
# Experimental: as §1
# clinical isolate SA28 = experiment: Mouse systemic infection model; assay type: in vivo, mice; settings: different doses
# Experimental: as §1
# [2] = tested on: methicillin-susceptible Staphylococcus epidermidis (MSSE) 35984; experiment: MIC by broth microdilution (CLSI); assay type: cell-based
# MRSA USA300 [3] = experiment: Mouse lung infection model, bacterial load and histopathology; assay type: in vivo, mice; settings: mouse pneumonia
# Experimental: The mice were challenged with 1 × 10^8 CFU of MRSA USA300 to assess bacterial load and pathological changes. The dose and manner of administration in mice were consistent with the survival experiments. In addition, the mice treated with ceftaroline fosamil at 75 and 37.5 mg/kg were used as control groups. At 48 h postinfection, mice were euthanized, and the left lungs were aseptically removed, weighed, and homogenized. Then, the lung tissues were homogenized and serially diluted for CFU counts. The right lungs were fixed with 10% formalin, embedded in paraffin, thin-sectioned, subjected to conventional hematoxylin and eosin (H&E) staining, and then observed using an optical microscope.
# clinically isolated MRSA = experiment: MIC against clinical isolates; assay type: cell-based, Staphylococcus aureus; settings: controls moxalactam and cefepime
# Experimental: (§2) The clinical strains of MRSA and MSSA isolated in Beijing, Sichuan, and Shanghai in the last 3 years totaled more than 300 strains. Clinical isolates were stored at −80°C in 20% glycerol-rich brain heart infusion (BHI) and passaged twice on Trypticase soy agar prior to the experiment. Before the experiment, 16s RNA identification was performed, and then PCR was used to distinguish MRSA and MSSA by identifying the mecA gene. Furthermore, the MIC of cefoxitin against clinical isolates was tested again. The drug sensitivity results were judged according to the criteria established by the American Society for Clinical Laboratory Standardization. MRSA was determined by a cefoxitin MIC of ≥8 μg/mL ([36]). Finally, 100 strains each of MRSA and MSSA were randomly selected from the identified strains for subsequent experiments. All chemical reagents and antibiotics were purchased from Sigma (St. Louis, MO). S. aureus was grown at 30°C in BHI broth (Oxoid) with constant shaking or on BHI agar plates unless otherwise noted. […]
# (§3) The antibacterial spectrum and susceptibility of WYBQ-4 against MRSA USA300, MSSA 29213, and clinically isolated S. aureus were determined using a broth microdilution method following the guidelines outlined by the Clinical and Laboratory Standards Institute (CLSI) ([37], [38]). […] The absorbance was measured at 600 nm, and experiments were repeated in three biological replicates.
# clinically isolated MSSA = experiment: MIC against clinical isolates; assay type: cell-based, Staphylococcus aureus; settings: controls moxalactam and cefepime
# Experimental: as §2, §3
compound,measurement,setting,value
C#CCO[C@@]1(NC(=O)CSc2cccc(C)c2)C(=O)N2C(C(=O)O)=C(CSc3nnnn3C)CSC21 (stereo partly shown) [WYBQ-4],PAE,MSSA ATCC 29213; 2× MIC,1.5 h
same,PAE,MSSA ATCC 29213; 8× MIC,3.5 h
same,protection in systemic infection,clinical isolate SA1B2B,had a protective effect
same,survival rate,MRSA USA300 [1],100%
same,protection in systemic infection,clinical isolate SA28,had a protective effect
same,MIC,[2],0.5 µg/mL
same,bacterial counts in the lung,"MRSA USA300 [3]; USA300 1 × 10^8 CFU, 75 mg/kg, 48 h postinfection",5.44 ± 0.15 log10 CFU/g
same,inflammatory signs of lung tissue (H&E histopathology),"MRSA USA300 [3]; USA300, after treatment",significantly reduced
same,bacteriostatic activity (MIC) versus control drugs,clinically isolated MRSA,better bacteriostatic activity than the control drugs
same,bacteriostatic activity (MIC) versus control drugs,clinically isolated MSSA,better bacteriostatic activity than the control drugs
